From patent US10730022B2, “Process for the separation of organic compounds” (VITO NV, priority 2015, dated 2020)
Several values for one entry are separate records, joined by “and”; a condition that tells them apart may be missing. Equal values may be shown once.

Assays:
[1] = cited from earlier work
[2] = % uncharged amine at pH 10, calculated using Henderson-Hasselbalch equation; type: physicochemical; settings: for % uncharged at pH 10: calculated using Henderson-Hasselbalch equation; for uncharged/charged ratio of the amine at the pH of the feed solution: pH 10 feed
Experimental: Assuming that only the uncharged amine can pass through the membrane, the (theoretical) extractable amount can be calculated using the % uncharged amine at pH 10 (Table 1). For MPPA (596 mg in feed solution) and MBA (484 mg in the feed solution) this corresponds to 113 mg and 358 mg theoretical extractable amine, respectively. After 7 h, 15% of this amount was extracted for MPPA, while only 3% of this amount was extracted for MBA.

[3] = membrane contactor extraction of MPPA/IPA mixture from pH 10 feed into pH 3 sodium acetate collection solution (Example 2); type: physicochemical; settings: pH 3 collection, 30° C., 20 l/h, 300 to 500 mbar
Experimental: A mixture of isopropyl amine (IPA) and 1-methyl-3-phenylpropylamine (MPPA) in a pH 10 aqueous buffer (feed solution) was applied to a first compartment of a membrane contactor module, with the second compartment comprising a sodium acetate buffer (pH 3) (collection solution). The membrane separation was performed at a flow rate of 20 l/h, temperature of 30° C. and transmembrane pressure of 300 to 500 mbar. Feed and collection solutions were continuously recycled in the membrane contactor module. The membrane used was a phenyl phosphonic acid functionalized ceramic membrane (as in Example 1), wherein both the external surface as the internal surface of the pores was linked to the organic moiety. The amine concentration in the extracting sodium acetate solution was followed up over time (FIG. 5).

[4] = membrane contactor extraction of transamination reaction mixture in organic solvent into pH 3 sodium acetate buffer (Example 3); type: physicochemical; settings: organic solvent feed, pH 3 sodium acetate extracting solution
Experimental: An enzymatically catalysed transamination reaction is performed in an organic solvent, using benzyl acetone (BA) and isopropyl amine (IPA) as respectively substrate ketone and substrate amine. […] The resulting products are acetone (as co-product ketone) and (S-)1-methyl-3-phenylpropylamine (S-MPPA—a chiral amine). This reaction is prone to product inhibition by MPPA.
The reaction mixture is passed through a membrane contactor module, using an acidic sodium acetate buffer (pH 3) as extracting solution.

[5] = octanol/water; cited from earlier work
[6] = cited from earlier work; remark: listed apart in the source
[7] = membrane contactor extraction of MPPA/MBA mixture from pH 10 feed into pH 3 sodium acetate collection solution (Example 1); type: physicochemical; settings: for time of membrane extraction after which amine was detected in the acidic extracting solution: MPPA/MBA mixture, pH 10 feed, pH 3 collection, 30° C., 20 l/h, 300-500 mbar; for % of theoretical extractable amount extracted: after 7 h; for theoretical extractable amine: from % uncharged at pH 10, 596 mg MPPA and 484 mg MBA in feed
Experimental: A mixture of MPPA and MBA in a pH 10 aqueous buffer (feed solution) was applied to a first compartment of a membrane contactor module, with the second compartment comprising a sodium acetate buffer (pH 3) (collection solution). The membrane separation was performed at a flow rate of 20 l/h, a temperature of 30° C. and a transmembrane pressure of 300-500 mbar. Feed and collection solutions were continuously recycled in the membrane contactor module. The membrane used was a phenyl phosphonic acid functionalized ceramic membrane, wherein both the external surface as the internal surface of the pores was linked to the organic moiety. […] The amine concentration in the extracting sodium acetate solution was followed up over time (FIG. 4).

Row | SMILES | solubility in aqueous liquids [1] | % uncharged at pH 10 [2] [%] | time of membrane extraction after which amine was detected in the acidic extracting solution [3] | membrane passage behaviour [4] | LogP [5] | pKa [6] | uncharged/charged ratio of the amine at the pH of the feed solution [2] | time of membrane extraction after which amine was detected in the acidic extracting solution [7] | % of theoretical extractable amount extracted [7] [%] | theoretical extractable amine [7] [mg]
1 | CC(=O)CCc1ccccc1 [BA, benzyl acetone] | 10 mM and 1.48 g/1 | – | – | – | – | – | – | – | – | –
2 | CC(C)N [IPA, isopropyl amine] | – | 16 | about 7 h | mainly remains in the feed solution | 0.391 | 10.73 | – | – | – | –
3 | CNCc1ccccc1 [MBA, methylbenzylamine] | – | 74 | – | – | 1.7 | 9.54 | ≈ 3 | 3.5 h | 3 | 358
4 | CC(N)CCc1ccccc1 (stereo not shown) [MPPA, 1-methyl-3-phenylpropylamine] | – | 19 | less than 1 h | efficiently passes the membrane | 2.264 | 10.63 | ≈ 0.25 | less than 1 h | 15 | 113
